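Cells were grown in 96-well plates and exposed to each compound for 48 hours at five concentrations; endpoints were interpolated linearly between bracketing concentrations, or set to the highest concentration if not reached. Definition used: TGI = concentration required for complete inhibition of growth.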
What was measured:
Assay in all cases: inhibition of tumour cell growth, NCI panel, 48 h
K-562 leukemia = test system: K-562 leukemia
LOX IMVI melanoma = test system: LOX IMVI melanoma
UACC-257 melanoma = test system: UACC-257 melanoma
SF-268 CNS = test system: SF-268 CNS
HCT-116 colon = test system: HCT-116 colon
SK-MEL-28 melanoma = test system: SK-MEL-28 melanoma
OVCAR-5 ovarian = test system: OVCAR-5 ovarian
HOP-62 NSCLC = test system: HOP-62 NSCLC
OVCAR-4 ovarian = test system: OVCAR-4 ovarian
PC-3 prostate = test system: PC-3 prostate
786-0 renal = test system: 786-0 renal
UO-31 renal = test system: UO-31 renal
CCRF-CEM leukemia = test system: CCRF-CEM leukemia

O=C(c1ccc(Cl)c(Cl)c1)N(C(=O)N1CCN(c2ccccc2)CC1)S(=O)(=O)c1ccccc1
TGI (K-562 leukemia): > 100 µM
TGI (LOX IMVI melanoma): 40.5 µM
TGI (UACC-257 melanoma): > 100 µM
TGI (SF-268 CNS): > 100 µM
TGI (HCT-116 colon): 86.8 µM
TGI (SK-MEL-28 melanoma): > 100 µM
TGI (OVCAR-5 ovarian): 64.5 µM
TGI (HOP-62 NSCLC): > 100 µM
TGI (OVCAR-4 ovarian): 65.6 µM
TGI (PC-3 prostate): 93.5 µM
TGI (786-0 renal): > 100 µM
TGI (UO-31 renal): 50.3 µM
TGI (CCRF-CEM leukemia): > 100 µM

CC1=NN(C(=O)CC(=O)Nc2ccc(Cl)cc2)C(=O)C1N=Nc1ccc(S(=O)(=O)c2ccc(N=NC3C(=O)N(C(=O)CC(=O)Nc4ccc(Cl)cc4)N=C3C)cc2)cc1 (stereo not given)
TGI (K-562 leukemia): > 100 µM
TGI (LOX IMVI melanoma): > 100 µM
TGI (UACC-257 melanoma): > 100 µM
TGI (SF-268 CNS): > 100 µM
TGI (HCT-116 colon): > 100 µM
TGI (SK-MEL-28 melanoma): > 100 µM
TGI (OVCAR-5 ovarian): > 100 µM
TGI (HOP-62 NSCLC): > 100 µM
TGI (OVCAR-4 ovarian): > 100 µM
TGI (PC-3 prostate): > 100 µM
TGI (786-0 renal): > 100 µM
TGI (UO-31 renal): > 100 µM
TGI (CCRF-CEM leukemia): > 100 µM

O=S1(=O)c2ccccc2-c2nccc3ccnc1c23
TGI (K-562 leukemia): > 100 µM
TGI (LOX IMVI melanoma): > 100 µM
TGI (UACC-257 melanoma): > 100 µM
TGI (SF-268 CNS): > 100 µM
TGI (HCT-116 colon): > 100 µM
TGI (SK-MEL-28 melanoma): > 100 µM
TGI (OVCAR-5 ovarian): > 100 µM
TGI (HOP-62 NSCLC): > 100 µM
TGI (OVCAR-4 ovarian): > 100 µM
TGI (PC-3 prostate): > 100 µM
TGI (786-0 renal): > 100 µM
TGI (UO-31 renal): 59 µM
TGI (CCRF-CEM leukemia): > 100 µM

Cc1ccccc1C1CC(=O)CC(c2ccccc2C)C12C(=O)NC(=S)NC2=O (stereo not given)
TGI (K-562 leukemia): > 100 µM
TGI (LOX IMVI melanoma): 35.8 µM
TGI (UACC-257 melanoma): 52.4 µM
TGI (SF-268 CNS): > 100 µM
TGI (HCT-116 colon): 49 µM
TGI (SK-MEL-28 melanoma): 44.5 µM
TGI (OVCAR-5 ovarian): > 100 µM
TGI (HOP-62 NSCLC): > 100 µM
TGI (OVCAR-4 ovarian): > 100 µM
TGI (PC-3 prostate): 70 µM
TGI (786-0 renal): > 100 µM
TGI (UO-31 renal): 43.2 µM
TGI (CCRF-CEM leukemia): 70.4 µM

CC(C)(C)OC(=O)NCC(=O)N(CCc1ccc(Cl)c(Cl)c1)CCN1CCCC1
TGI (K-562 leukemia): 25.1 µM
TGI (LOX IMVI melanoma): 29.3 µM
TGI (UACC-257 melanoma): 29.9 µM
TGI (SF-268 CNS): 31.6 µM
TGI (HCT-116 colon): 27.9 µM
TGI (SK-MEL-28 melanoma): 29.7 µM
TGI (OVCAR-5 ovarian): 38.7 µM
TGI (HOP-62 NSCLC): 27.7 µM
TGI (OVCAR-4 ovarian): 54.9 µM
TGI (PC-3 prostate): 30.3 µM
TGI (786-0 renal): 28 µM
TGI (UO-31 renal): 28.7 µM
TGI (CCRF-CEM leukemia): 28.4 µM

Cc1ccc(/C=C2\CCCCCC2=O)cc1
TGI (K-562 leukemia): > 100 µM
TGI (LOX IMVI melanoma): > 100 µM
TGI (UACC-257 melanoma): > 100 µM
TGI (SF-268 CNS): > 100 µM
TGI (HCT-116 colon): > 100 µM
TGI (SK-MEL-28 melanoma): > 100 µM
TGI (OVCAR-5 ovarian): > 100 µM
TGI (HOP-62 NSCLC): > 100 µM
TGI (OVCAR-4 ovarian): > 100 µM
TGI (PC-3 prostate): > 100 µM
TGI (786-0 renal): > 100 µM
TGI (UO-31 renal): > 100 µM
TGI (CCRF-CEM leukemia): > 100 µM

CN1C(=O)C(C#N)C2C[C@@]1(C)Oc1ccccc12 (stereo not given in full)
TGI (K-562 leukemia): > 100 µM
TGI (LOX IMVI melanoma): > 100 µM
TGI (UACC-257 melanoma): > 100 µM
TGI (SF-268 CNS): > 100 µM
TGI (HCT-116 colon): > 100 µM
TGI (SK-MEL-28 melanoma): > 100 µM
TGI (OVCAR-5 ovarian): > 100 µM
TGI (HOP-62 NSCLC): > 100 µM
TGI (OVCAR-4 ovarian): > 100 µM
TGI (PC-3 prostate): > 100 µM
TGI (786-0 renal): > 100 µM
TGI (UO-31 renal): > 100 µM
TGI (CCRF-CEM leukemia): > 100 µM

CC(=O)c1sc2n(C)c(=O)c3ccccc3[n+]2c1C
TGI (K-562 leukemia): > 100 µM
TGI (LOX IMVI melanoma): > 100 µM
TGI (UACC-257 melanoma): > 100 µM
TGI (SF-268 CNS): > 100 µM
TGI (HCT-116 colon): > 100 µM
TGI (SK-MEL-28 melanoma): > 100 µM
TGI (OVCAR-5 ovarian): > 100 µM
TGI (HOP-62 NSCLC): > 100 µM
TGI (OVCAR-4 ovarian): > 100 µM
TGI (PC-3 prostate): > 100 µM
TGI (786-0 renal): > 100 µM
TGI (UO-31 renal): > 100 µM
TGI (CCRF-CEM leukemia): > 100 µM

CC(CC(C)[C@H]1CCC2[C@H]3C(CC(=O)[C@@]21C)[C@@]1(C)CCC(O)C[C@H]1C[C@@H]3O)C(=O)O (stereo not given in full)
TGI (K-562 leukemia): > 100 µM
TGI (LOX IMVI melanoma): > 100 µM
TGI (UACC-257 melanoma): > 100 µM
TGI (SF-268 CNS): > 100 µM
TGI (HCT-116 colon): > 100 µM
TGI (SK-MEL-28 melanoma): > 100 µM
TGI (OVCAR-5 ovarian): > 100 µM
TGI (HOP-62 NSCLC): > 100 µM
TGI (OVCAR-4 ovarian): > 100 µM
TGI (PC-3 prostate): > 100 µM
TGI (786-0 renal): > 100 µM
TGI (UO-31 renal): > 100 µM
TGI (CCRF-CEM leukemia): > 100 µM

COc1cc(/C=C2\CC(C)C/C(=C\c3ccc(O)c(OC)c3)C2=O)ccc1O (stereo not given)
TGI (K-562 leukemia): > 73.5 µM
TGI (LOX IMVI melanoma): 5.79 µM
TGI (UACC-257 melanoma): 9.08 µM
TGI (SF-268 CNS): 20.7 µM
TGI (HCT-116 colon): 3.4 µM
TGI (SK-MEL-28 melanoma): 8.95 µM
TGI (OVCAR-5 ovarian): 40.8 µM
TGI (HOP-62 NSCLC): 9.11 µM
TGI (OVCAR-4 ovarian): 8.96 µM
TGI (PC-3 prostate): 20.5 µM
TGI (786-0 renal): > 100 µM
TGI (UO-31 renal): 5.41 µM
TGI (CCRF-CEM leukemia): > 45 µM

CC1CN=C(NS(=O)(=O)c2cc(C(=O)Nc3ccccc3)c(Cl)cc2S)NN1 (stereo not given)
TGI (K-562 leukemia): > 100 µM
TGI (LOX IMVI melanoma): > 100 µM
TGI (UACC-257 melanoma): > 100 µM
TGI (SF-268 CNS): > 100 µM
TGI (HCT-116 colon): > 100 µM
TGI (SK-MEL-28 melanoma): > 100 µM
TGI (OVCAR-5 ovarian): > 100 µM
TGI (HOP-62 NSCLC): > 100 µM
TGI (OVCAR-4 ovarian): > 100 µM
TGI (PC-3 prostate): > 100 µM
TGI (786-0 renal): > 100 µM
TGI (UO-31 renal): > 100 µM
TGI (CCRF-CEM leukemia): > 100 µM

O=C(/C=C/c1ccccc1Br)c1ccccc1
TGI (K-562 leukemia): 5.14 µM
TGI (LOX IMVI melanoma): 2.64 µM
TGI (UACC-257 melanoma): 24.1 µM
TGI (SF-268 CNS): 10.5 µM
TGI (HCT-116 colon): 3.85 µM
TGI (SK-MEL-28 melanoma): 15.8 µM
TGI (OVCAR-5 ovarian): 34.2 µM
TGI (HOP-62 NSCLC): 26.2 µM
TGI (OVCAR-4 ovarian): 6.03 µM
TGI (PC-3 prostate): 23.5 µM
TGI (786-0 renal): 4.39 µM
TGI (UO-31 renal): 11.3 µM
TGI (CCRF-CEM leukemia): 3.85 µM

CCOC(=O)C(C)c1nc2cc(C(F)(F)F)ccc2[nH]c1=O (stereo not given)
TGI (K-562 leukemia): > 100 µM
TGI (LOX IMVI melanoma): > 100 µM
TGI (UACC-257 melanoma): > 100 µM
TGI (SF-268 CNS): > 100 µM
TGI (HCT-116 colon): > 100 µM
TGI (SK-MEL-28 melanoma): > 100 µM
TGI (OVCAR-5 ovarian): > 100 µM
TGI (HOP-62 NSCLC): > 100 µM
TGI (OVCAR-4 ovarian): > 100 µM
TGI (PC-3 prostate): > 100 µM
TGI (786-0 renal): > 100 µM
TGI (UO-31 renal): > 100 µM
TGI (CCRF-CEM leukemia): > 100 µM

Nc1ncc(N)c(NCC2(CO)CC(CCc3ccccc3)C2)n1 (stereo not given)
TGI (K-562 leukemia): 12.9 µM
TGI (LOX IMVI melanoma): 16.6 µM
TGI (UACC-257 melanoma): 22.8 µM
TGI (SF-268 CNS): > 43 µM
TGI (HCT-116 colon): 20.1 µM
TGI (SK-MEL-28 melanoma): 27.9 µM
TGI (OVCAR-5 ovarian): 28.5 µM
TGI (HOP-62 NSCLC): 28.3 µM
TGI (OVCAR-4 ovarian): 20.8 µM
TGI (PC-3 prostate): 18.9 µM
TGI (786-0 renal): 22.5 µM
TGI (UO-31 renal): 15 µM
TGI (CCRF-CEM leukemia): 4.34 µM

C=C(C)CCN(C(=O)OC(C)(C)C)c1cc(C(C)C)co1
TGI (K-562 leukemia): > 100 µM
TGI (LOX IMVI melanoma): 96.7 µM
TGI (UACC-257 melanoma): > 100 µM
TGI (SF-268 CNS): 55.7 µM
TGI (HCT-116 colon): > 100 µM
TGI (SK-MEL-28 melanoma): > 100 µM
TGI (OVCAR-5 ovarian): > 100 µM
TGI (HOP-62 NSCLC): > 100 µM
TGI (OVCAR-4 ovarian): > 100 µM
TGI (PC-3 prostate): 99.6 µM
TGI (786-0 renal): > 100 µM
TGI (UO-31 renal): > 100 µM
TGI (CCRF-CEM leukemia): > 100 µM

— PubChem BioAssay (NCI)
